Source: patent US8952024B2, “Herbicidal pyrimidone derivatives” (E I du Pont de Nemours and Company, priority 2009, dated 2015)

How the values were obtained:
Format in all cases: in vivo
[1] = test system: pigweed (Amaranthus retroflexus); experiment: Test A pre-/postemergence plant response
Outline: (§1)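 Injury scores (0, no effect; 100, complete control) come from visual comparison with untreated controls roughly ten days post-treatment. Test chemicals in a surfactant-containing non-phytotoxic solvent were applied as a directed soil spray preemergence and to one- to two-leaf seedlings postemergence.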

[2] = test system: large crabgrass (Digitaria sanguinalis); experiment: Test A pre-/postemergence plant response
Outline: as §1

[3] = test system: barnyardgrass (Echinochloa crus-galli); experiment: Test A pre-/postemergence plant response
Outline: as §1

corn (Zea mays) = experiment: Test A pre-/postemergence plant response
Outline: as §1

[4] = test system: wheat (Triticum aestivum); experiment: Test A pre-/postemergence plant response
Outline: as §1

[5] = test system: giant foxtail (Setaria faberii); experiment: Test A pre-/postemergence plant response
Outline: as §1

[6] = test system: morningglory (Ipomoea spp.); experiment: Test A pre-/postemergence plant response
Outline: as §1

[7] = test system: velvetleaf (Abutilon theophrasti); experiment: Test A pre-/postemergence plant response
Outline: as §1

[8] = test system: ducksalad (Heteranthera limosa); experiment: Test B flooded paddy test; conditions: for Plant response rating, Flood, Ducksalad: 250 g ai/ha, flooded paddy test, visual rating on 0 to 100 scale (0 no effect, 100 complete control) after 13 to 15 days; for Plant response rating, Ducksalad: Flood (flooded paddy test), 62 g ai/ha, 13 to 15 days
Outline: (§2)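 Plants were grown to the 2-leaf stage, then pots were flooded to 3 cm above the soil and compounds were applied directly into the paddy water. That depth was held throughout. After 13 to 15 days in a greenhouse, injury was visually rated against controls on a 0–100 scale.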

rice (Oryza sativa) = experiment: Test B flooded paddy test; conditions: for Plant response rating, Flood, Rice: 250 g ai/ha, flooded paddy test, visual rating on 0 to 100 scale (0 no effect, 100 complete control) after 13 to 15 days; for Plant response rating, Rice: Flood (flooded paddy test), 62 g ai/ha, 13 to 15 days
Outline: as §2

[9] = test system: chickweed (Stellaria media); experiment: Test B postemergence plant response; conditions: for Chickweed plant response rating (0 to 100 scale): 0 is no effect
Outline: (§3)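 Visual ratings from 0 (no effect) to 100 (complete control), made against controls 13–15 days after treatment, kept in a greenhouse. Compounds were applied postemergence to potted plants at the 1- to 4-leaf stage (2–18 cm).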

[10] = test system: canarygrass (Phalaris minor); experiment: Test B postemergence plant response; conditions: for Canarygrass plant response rating (0 to 100 scale): 0 is no effect
Outline: as §3

[11] = test system: windgrass (Apera spica-venti); experiment: Test B postemergence plant response; conditions: for Windgrass plant response rating (0 to 100 scale): 0 is no effect
Outline: as §3

[12] = Postemergence, 125 g ai/ha, 0 to 100 scale where 0 is no effect and 100 is complete control
[13] = Postemergence, 500 g ai/ha, 0 to 100 scale, 0 = no effect, 100 = complete control, approx. ten days
[14] = Preemergence, 125 g ai/ha, 0 to 100 scale, 0 = no effect, 100 = complete control
[15] = Preemergence, 500 g ai/ha, visual injury, 0 to 100 scale (0 no effect, 100 complete control), approx. ten days
[16] = scale of 0 to 100 where 0 is no effect and 100 is complete control
[17] = 31 g ai/ha, postemergence, scale 0 to 100, 0 is no effect, 100 is complete control
[18] = 62 g ai/ha, postemergence, 100 is complete control, 13 to 15 days
[19] = Postemergence, 125 g ai/ha, scale 0 to 100 (0 no effect, 100 complete control)
[20] = Postemergence, 250 g ai/ha, scale 0 to 100 (0 no effect, 100 complete control)
[21] = Postemergence, 125 g ai/ha, visual rating after 13 to 15 days, scale 0 (no effect) to 100 (complete control)
[22] = Postemergence, 125 g ai/ha, visual injury, 0 to 100 scale (0 no effect, 100 complete control), approx. ten days
[23] = scale 0 to 100, 0 is no effect, 100 is complete control
[24] = Postemergence, 31 g ai/ha, scale 0 to 100 (0 no effect, 100 complete control)
[25] = Postemergence, 62 g ai/ha, scale 0 (no effect) to 100 (complete control), 13 to 15 days
[26] = Postemergence, 250 g ai/ha, scale 0 to 100

In the case of `COCCn1c(-c2cccc(C)c2)ncc(C(=O)C2=C(O)CCCC2=O)c1=O` [Compound 117], the “Plant response rating, Pigweed” value [1, 12] is reported as 100, the “Plant response rating, Pigweed” value [1, 13] is reported as 100 and the “Plant response rating, Pigweed” value [1, 14] is reported as 90. For the same compound, the “Plant response rating, Pigweed” value [1, 15] was 100, the “Plant response rating, Crabgrass, Large” value [2, 12] was 80 and the “Plant response rating, Crabgrass, Large” value [2, 13] was 100. For the same compound, the “Plant response rating, Crabgrass, Large” value [2, 14] was 60, the “Plant response rating, Crabgrass, Large” value [2, 15] was 100 and the “Plant response rating, Barnyardgrass” value [3, 12] was 80. The “Plant response rating, Barnyardgrass” value [3, 13] was 90, the “Plant response rating, Barnyardgrass” value [3, 14] was 50 and the “Plant response rating, Barnyardgrass” value [3, 15] was 90. The “Plant response rating, Corn” value (corn (Zea mays); [12]) was 20, the “Plant response rating, Corn” value (corn (Zea mays); [13]) was 50 and the “Plant response rating, Corn” value (corn (Zea mays); [14]) was 0. For the same compound, the “Plant response rating, Corn” value (corn (Zea mays); [15]) was 20, the “Plant response rating, Wheat” value [4, 12] was 0 and the “Plant response rating, Wheat” value [4, 13] was 30. For the same compound, the “Plant response rating, Wheat” value [4, 14] was 0, the “Plant response rating, Wheat” value [4, 15] was 20 and the “Plant response rating, Foxtail, Giant” value [5, 12] was 70. For the same compound, the “Plant response rating, Foxtail, Giant” value [5, 13] was 80, the “Plant response rating, Foxtail, Giant” value [5, 14] was 20 and the “Plant response rating, Foxtail, Giant” value [5, 15] was 70. The “Plant response rating, Morningglory” value [6, 12] was 100, the “Plant response rating, Morningglory” value [6, 13] was 100 and the “Plant response rating, Morningglory” value [6, 14] was 40. For the same compound, the “Plant response rating, Morningglory” value [6, 15] was 90, the “Plant response rating, Velvetleaf” value [7, 12] was 100 and the “Plant response rating, Velvetleaf” value [7, 13] was 100. For the same compound, the “Plant response rating, Velvetleaf” value [7, 14] was 70, the “Plant response rating, Velvetleaf” value [7, 15] was 90 and the “Plant response rating, Flood, Ducksalad” value [8] was 100. The “Plant response rating, Flood, Rice” value (rice (Oryza sativa)) was 15, the “Plant response rating, Rice” value (rice (Oryza sativa); [16]) was 0 and the “Plant response rating, Chickweed” value [9, 17] was 85. The “Chickweed plant response rating (0 to 100 scale)” value [9, 18] was 95, the “Plant response rating, Chickweed” value [9, 19] was 98 and the “Plant response rating, Chickweed” value [9, 20] was 100. The “Plant response rating, Canarygrass” value [10, 17] was 0, the “Canarygrass plant response rating (0 to 100 scale)” value [10, 18] was 0 and the “Plant response rating, Canarygrass” value [10, 19] was 5. For the same compound, the “Plant response rating, Canarygrass” value [10, 20] was 5, the “Windgrass plant response rating (0 to 100 scale)” value [11, 18] was 45 and the “Plant response rating, Windgrass” value [11, 19] was 65.
`CCCn1c(-c2cccs2)ncc(C(=O)C2=C(O)CCCC2=O)c1=O` [Compound 77] was tested, and the “Plant response rating, Pigweed” value [1, 12] was 100, the “Plant response rating, Pigweed” value [1, 13] was 100 and the “Plant response rating, Pigweed” value [1, 14] was 80. For the same compound, the “Plant response rating, Pigweed” value [1, 15] was 90, the “Plant response rating, Crabgrass, Large” value [2, 12] was 60 and the “Plant response rating, Crabgrass, Large” value [2, 13] was 80. For the same compound, the “Plant response rating, Crabgrass, Large” value [2, 14] was 50, the “Plant response rating, Crabgrass, Large” value [2, 15] was 90 and the “Plant response rating, Barnyardgrass” value [3, 12] was 80. The “Plant response rating, Barnyardgrass” value [3, 13] was 90, the “Plant response rating, Barnyardgrass” value [3, 14] was 20 and the “Plant response rating, Barnyardgrass” value [3, 15] was 50. For the same compound, the “Plant response rating, Corn” value (corn (Zea mays); [12]) was 0, the “Plant response rating, Corn” value (corn (Zea mays); [13]) was 20 and the “Plant response rating, Corn” value (corn (Zea mays); [14]) was 0. The “Plant response rating, Corn” value (corn (Zea mays); [15]) was 0, the “Plant response rating, Wheat” value [4, 12] was 0 and the “Plant response rating, Wheat” value [4, 13] was 0. For the same compound, the “Plant response rating, Wheat” value [4, 14] was 0, the “Plant response rating, Wheat” value [4, 15] was 0 and the “Plant response rating, Foxtail, Giant” value [5, 12] was 50. For the same compound, the “Plant response rating, Foxtail, Giant” value [5, 13] was 70, the “Plant response rating, Foxtail, Giant” value [5, 14] was 0 and the “Plant response rating, Foxtail, Giant” value [5, 15] was 20. For the same compound, the “Plant response rating, Morningglory” value [6, 12] was 90, the “Plant response rating, Morningglory” value [6, 13] was 100 and the “Plant response rating, Morningglory” value [6, 15] was 70. The “Plant response rating, Velvetleaf” value [7, 12] was 100, the “Plant response rating, Velvetleaf” value [7, 13] was 100 and the “Plant response rating, Velvetleaf” value [7, 14] was 70. For the same compound, the “Plant response rating, Velvetleaf” value [7, 15] was 100, the “Plant response rating, Flood, Ducksalad” value [8] was 40 and the “Plant response rating, Ducksalad” value [8, 16] was 30. The “Plant response rating, Flood, Rice” value (rice (Oryza sativa)) was 15, the “Plant response rating, Rice” value (rice (Oryza sativa); [16]) was 0 and the “Plant response rating, Chickweed” value [9, 17] was 80. The “Chickweed plant response rating (0 to 100 scale)” value [9, 18] was 85, the “Plant response rating, Chickweed” value [9, 21] was 95 and the “Plant response rating, Chickweed” value [9, 20] was 98. For the same compound, the “Plant response rating, Canarygrass” value [10, 17] was 0, the “Canarygrass plant response rating (0 to 100 scale)” value [10, 18] was 0 and the “Plant response rating, Canarygrass” value [10, 21] was 0. For the same compound, the “Plant response rating, Canarygrass” value [10, 20] was 0, the “Plant response rating, Windgrass” value [11, 17] was 10 and the “Windgrass plant response rating (0 to 100 scale)” value [11, 18] was 10. The “Plant response rating, Windgrass” value [11, 21] was 20 and the “Plant response rating, Windgrass” value [11, 20] was 25.
`Cc1ccc(F)cc1-n1c(-c2ccccc2)ncc(C(=O)C2=C(O)CCCC2=O)c1=O` [Compound 44] was tested, and the “Pigweed plant response rating” value [1, 22] was 100, the “Plant response rating, Pigweed” value [1, 13] was 100 and the “Plant response rating, Pigweed” value [1, 14] was 60. The “Plant response rating, Pigweed” value [1, 15] was 90, the “Crabgrass, Large plant response rating” value [2, 22] was 80 and the “Plant response rating, Crabgrass, Large” value [2, 13] was 90. The “Plant response rating, Crabgrass, Large” value [2, 14] was 80, the “Plant response rating, Crabgrass, Large” value [2, 15] was 90 and the “Barnyardgrass plant response rating” value [3, 22] was 90. The “Plant response rating, Barnyardgrass” value [3, 13] was 100, the “Plant response rating, Barnyardgrass” value [3, 14] was 30 and the “Plant response rating, Barnyardgrass” value [3, 15] was 100. For the same compound, the “Corn plant response rating” value (corn (Zea mays); [22]) was 0, the “Plant response rating, Corn” value (corn (Zea mays); [13]) was 40 and the “Plant response rating, Corn” value (corn (Zea mays); [14]) was 0. For the same compound, the “Plant response rating, Corn” value (corn (Zea mays); [15]) was 0, the “Wheat plant response rating” value [4, 22] was 0 and the “Plant response rating, Wheat” value [4, 13] was 20. The “Plant response rating, Wheat” value [4, 14] was 0, the “Plant response rating, Wheat” value [4, 15] was 0 and the “Foxtail, Giant plant response rating” value [5, 22] was 80. The “Plant response rating, Foxtail, Giant” value [5, 13] was 90, the “Plant response rating, Foxtail, Giant” value [5, 14] was 30 and the “Plant response rating, Foxtail, Giant” value [5, 15] was 90. For the same compound, the “Morningglory plant response rating” value [6, 22] was 80, the “Plant response rating, Morningglory” value [6, 13] was 90 and the “Plant response rating, Morningglory” value [6, 14] was 20. The “Plant response rating, Morningglory” value [6, 15] was 70, the “Velvetleaf plant response rating” value [7, 22] was 100 and the “Plant response rating, Velvetleaf” value [7, 13] was 100. The “Plant response rating, Velvetleaf” value [7, 14] was 70, the “Plant response rating, Velvetleaf” value [7, 15] was 100 and the “Plant response rating, Flood, Ducksalad” value [8] was 90. The “Plant response rating, Ducksalad” value [8, 23] was 80, the “Plant response rating, Flood, Rice” value (rice (Oryza sativa)) was 40 and the “Plant response rating, Rice” value (rice (Oryza sativa); [23]) was 20. The “Plant response rating, Chickweed” value [9, 24] was 90, the “Plant response rating, Chickweed” value [9, 25] was 95 and the “Plant response rating, Chickweed” value [9, 21] was 98. The “Chickweed plant response rating” value [9, 26] was 100, the “Plant response rating, Canarygrass” value [10, 24] was 20 and the “Plant response rating, Canarygrass” value [10, 25] was 20. For the same compound, the “Plant response rating, Canarygrass” value [10, 21] was 30, the “Canarygrass plant response rating” value [10, 26] was 40 and the “Plant response rating, Windgrass” value [11, 25] was 70. The “Plant response rating, Windgrass” value [11, 21] was 85.
